# Test results published in publication PMC11843613, “Further Optimization of the mGlu1 PAM VU6024578/BI02982816: Discovery and Characterization of VU6033685” (ACS Chemical Neuroscience, 2025).
# Where “and” joins values, the source holds several entries; their conditions need not be identical. Equal values may be shown once. Entries after “also recorded” stand apart in the source; their conditions may differ. Read-outs that look alike come from different tables or passages of the source.
# Assays:
# [1] = Rat tolerability in NOR and PO PK studies
# [2] = tested on: MK-801 disruption of novel object recognition in rats; assay: Rat MK-801-induced disruption of novel object recognition (NOR); assay type: in vivo
# Method: (§1) mode (5.0 kV spray voltage). The calibration curves were constructed in blank plasma. All data were analyzed using AB Sciex Analyst software v1.5.1.
# (§2) All animal study procedures were approved by the Institutional Animal Care and Use Committee and were conducted in accordance with the National Institutes of Health regulations of animal care covered in Principles of Laboratory Animal Care (National Institutes of Health). […]
# GraphPad Prism (version 4.03, GraphPad, La Jolla, CA). […]
# The animals are habituated to the novel object arenas for one day prior to testing. This is accomplished by placing the animal in the arena with no objects for 10 min and then placed back […]
# into the home cage. The arena is then cleaned with 70% ethanol in between animals. The day of the test the animals are habituated to the dosing room for 2 hours. […]
# The animals were then injected with MK-801 (0.075 mg/kg 1 ml/kg s.c.) and placed back in the homecage for 30 min. The animals are then placed into the arena with two identical familiar objects for ten minutes and then placed back into the home cage. The animals are then placed back into the arena with one of the familiar objects replaced with a novel object at 120 min after the familiar object exposure. The activity of the animals are recorded and the time spent exploring each of the objects is scored by a blinded observer. Recognition index is determined by subtracting the time spent with the […] divided by total time spent exploring. […]
# NaCl, 26 mM NaHCO3, 11mM D-glucose, 2.5 mM KCl, 2.45mM CaCl2, 1.25mM NaH2PO4 and 1.2mM MgSO4 which was supplemented with 5mM sodium ascorbate. Slices were recovered for at least 1 hour prior to recording. During recording slices were perfused with aCSF in the absence of ascorbate and presence of […] DhβE to block nAChR-mediated dopamine release. […]
# Briefly, a triangular voltage wave (-400 to +1000 mV at 300 V/sec) was applied to a fresh-cut carbon fiber electrode every 100 msec. […]
# [3] = Solubility in FASSGF and FASSIF; assay type: physicochemical
# [4] = tested on: amphetamine-induced hyperlocomotion in rats; assay: Rat amphetamine-induced hyperlocomotion (AHL) with satellite PK; assay type: in vivo
# Method: as §1, §2
# (§3) GraphPad Prism (version 4.03, GraphPad, La Jolla, CA).
# (§4) Amphetamine-induced hyperlocomotion (rat)
# (§5) Adult male Sprague-Dawley rats placed into the activity chambers (Med Associates). Thirty minutes after placement in the chambers, the rats were administered VU6024578 (1-10 mg/kg p.o..) or vehicle. Sixty minutes later the rats were injected with amphetamine (0.75 mg/kg s.c. 1 ml/kg) or vehicle (saline) and placed back in the activity chambers for 90 minutes. The data for the studies were analyzed by a between-group 2 way analysis of variance for compound dose and time. Each dose group was compared with the vehicle control group. The calculations were performed and graphed using GraphPad Prism (version 4.03, GraphPad, La Jolla, CA). The AUC was analyzed by a 1-way ANOVA with a Dunnett’s post hoc test. […]
# [5] = as above; assay type: in vivo; conditions: male, Sprague-Dawley, brain (unbound); for concentration at 1.25 h: sample @ 1.25 hr
# Method: as §1, §2, §3, §4, §5
# h mGlu5 = h mGlu5 (Homo sapiens, UniProt P41594); assay: mGlu5 PAM functional assay; assay type: cell-based
# [6] = Plasma protein binding (dog); assay type: in vitro ADME; conditions: pH 7.4, read-out: fu plasma (d)
# Method: (§6) page 13: at half log concentrations in DMSO were further diluted in assay buffer. The compounds or DMSO vehicle were added to cells and incubated for 2.5 min and an EC20 concentration of glutamate was added and incubated for 1 min. An ECmax concentration of glutamate was also added to cells that were incubated with DMSO vehicle to accurately calculate the EC20 calcium response. Data were normalized by subtracting the basal florescent peak before EC20 agonist addition from the maximal peak elicited by EC20 agonist and PAMs. Using GraphPad Prism 5.0, the concentration response curves were generated and the potencies of the mGlu1 PAMs were determined. DMPK Methods Plasma protein binding: The protein binding of each compound was determined in plasma via equilibrium dialysis employing RED Plates (ThermoFisher Scientific, Rochester, NY). Plasma was added to the 96 well plate containing test compound and mixed thoroughly for a final concentration of 5 µM. Subsequently, an aliquot of the plasma-compound mixture was transferred to the cis chamber (red) of the RED plate, with an phosphate buffer (25 mM, pH 7.4) in the trans chamber. The RED plate was sealed and incubated for 4 hours at 37°C with shaking. […] The in vitro half-life (T 1/2, min, Eq. 1), intrinsic clearance (CLint, mL/min/kg, Eq. 2) and subsequent predicted hepatic clearance (CLhep, mL/min/kg, Eq. 3) was determined S13
# [7] = Plasma protein binding (c); assay type: in vitro ADME, c (presumably cynomolgus); conditions: cynomolgus monkey, pH 7.4, read-out: fu plasma (c)
# Method: as §6
# Chain of h mGlu5 (P41594 21-1212): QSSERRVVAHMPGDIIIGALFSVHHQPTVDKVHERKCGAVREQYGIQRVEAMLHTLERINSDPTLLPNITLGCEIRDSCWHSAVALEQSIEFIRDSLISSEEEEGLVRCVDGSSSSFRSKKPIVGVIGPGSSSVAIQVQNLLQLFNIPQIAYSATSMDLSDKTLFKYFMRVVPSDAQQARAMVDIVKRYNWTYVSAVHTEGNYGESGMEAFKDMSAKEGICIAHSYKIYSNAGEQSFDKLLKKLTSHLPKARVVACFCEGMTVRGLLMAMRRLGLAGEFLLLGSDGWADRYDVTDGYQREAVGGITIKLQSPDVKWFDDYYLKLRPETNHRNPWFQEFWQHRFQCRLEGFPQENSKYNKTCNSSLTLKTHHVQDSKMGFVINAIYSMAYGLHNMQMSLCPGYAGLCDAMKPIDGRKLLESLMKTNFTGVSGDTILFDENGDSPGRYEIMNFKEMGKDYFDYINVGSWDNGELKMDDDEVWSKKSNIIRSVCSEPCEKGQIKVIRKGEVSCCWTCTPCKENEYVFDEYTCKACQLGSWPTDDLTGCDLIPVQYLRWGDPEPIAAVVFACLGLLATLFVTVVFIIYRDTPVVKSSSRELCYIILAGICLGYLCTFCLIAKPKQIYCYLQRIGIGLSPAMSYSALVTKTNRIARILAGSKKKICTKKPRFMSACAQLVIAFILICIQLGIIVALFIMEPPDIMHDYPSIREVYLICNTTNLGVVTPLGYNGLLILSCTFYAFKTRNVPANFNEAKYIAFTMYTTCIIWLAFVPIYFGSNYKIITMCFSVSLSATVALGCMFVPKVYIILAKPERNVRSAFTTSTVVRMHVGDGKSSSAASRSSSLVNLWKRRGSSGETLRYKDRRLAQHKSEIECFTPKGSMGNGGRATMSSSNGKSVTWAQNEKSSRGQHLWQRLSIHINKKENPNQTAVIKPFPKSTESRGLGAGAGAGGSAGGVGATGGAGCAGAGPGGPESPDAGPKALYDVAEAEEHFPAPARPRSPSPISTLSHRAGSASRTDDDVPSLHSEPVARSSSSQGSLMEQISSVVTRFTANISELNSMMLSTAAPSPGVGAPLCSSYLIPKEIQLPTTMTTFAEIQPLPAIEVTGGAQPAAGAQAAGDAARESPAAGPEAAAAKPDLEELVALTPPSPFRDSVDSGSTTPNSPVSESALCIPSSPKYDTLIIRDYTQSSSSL
structure (smiles),measurement,setting,value
Cc1nc(C2CC2)ccc1CNC(=O)c1cc(-n2cccn2)ccc1Cl [compound 8],adverse events at 6.2-fold rat EC50 free in brain,[1]; rat PO,"piloerection, slow movement, and reaction to stimuli"
same,duration of adverse events postdose,[1]; rat PO,~2 h
same,free brain concentration (fold rat EC50) that resulted in AEs,[1]; rat PO PK studies,6.2 fold
same,free brain concentration that resulted in AEs,[1]; rat PO PK studies,664 nM
same,free brain level as fold of rat in vitro EC50 at 30 mg/kg in NOR,[2]; rat PO 30 mg/kg,~5.2 fold
same,free brain level at 30 mg/kg in NOR,"[2]; rat PO 30 mg/kg, 0.5% Natrasol/0.015% Tween 80 in water",579 nM
same,reversal of MK-801 disruption of novel object recognition,"[2]; rat, PO, MK-801 0.075 mg/kg SC, one-way ANOVA p = 0.13",dose-dependently reverse the deficits induced by MK-801; also recorded: dose-dependently reversed
same,solubility,"[3]; FASSGF, fassgf or other biorelevant, read-out: Solubility FASSGF",572 µg/mL
same,solubility,"[3]; FASSIF, read-out: Solubility FASSIF",23.6 µg/mL
same,AHL efficacy compared with positive control 3,[4]; rat,comparable efficacy to the standard 3
same,minimum effective dose (MED) in AHL,[4]; rat PO,10 mg/kg
same,unbound brain concentration as fold of in vitro rat mGlu1 EC50 at efficacy in AHL,"[4]; rat, 10 mg/kg MED, 10 mg/kg",~0.74 fold and ~0.7 fold
same,reversal of amphetamine-induced hyperlocomotion,"[4]; rat, oral administration, amphetamine 0.75 mg/kg SC",dose-dependently reversed
same,concentration at 1.25 h,"[5]; rat PO 1 mg/kg, read-out: Brain Unbound at 1 mg/kg",16.1 nM
same,concentration at 1.25 h,"[5]; rat PO 3 mg/kg, read-out: Brain Unbound at 3 mg/kg",35.4 nM
same,concentration at 2.5 h,"[5]; rat PO 10 mg/kg, satellite PK, 2.5 h end of study (picture: sample @ 1.25 hr), read-out: free (unbound) brain concentration at 10 mg/kg",79.8 nM
same,mGlu5 Glu Max,h mGlu5,72%
same,EC50,"h mGlu5; Table 1, unit inferred",3.76 µM
same,"fraction unbound at 4 h, 5 µM",[6],0.099
same,"fraction unbound at 4 h, 5 µM",[7],0.46
